According to US20180099931A1 (AbbVie S.à.r.l., priority 2016, published 2018):
Read-outs that look alike come from different tables or passages of the source.

Biological target: T1, F508delCFTR (Homo sapiens, UniProt P13569, DEL508-508)
T1 construct: expressed in transfected cells; host or cells: CFBE41o- human lung-derived epithelial cells (CFBE4lo-F508delCFTR-HRP), doxycycline-inducible
Assay: Cell Surface Expression-Horse Radish Peroxidase (CSE-HRP) Assay;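 for Maximum % activity (with co-corrector): co-corrector and positive control are both the same reference corrector at 2 µM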;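 for Maximum % activity (without co-corrector): percent of the 2 µM on-plate positive control corrector response above DMSO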
Type: cell-based
Conditions: for Maximum % activity (with co-corrector): with co-corrector (2 μM); for Maximum % activity (with co-corrector) / Emax: maximum at any tested concentration, normalized to on-plate positive control; for Emax: without co-corrector, read-out: Maximum % activity (without co-corrector)

[1] = test compound without co-corrector, read-out: EC50 (without co-corrector)
[2] = with co-corrector (2 μM of 3-[(2R,4R)-4-({[1-(2,2-difluoro-1,3-benzodioxol-5-yl)cyclopropyl]carbonyl}amino)-7-methoxy-3,4-dihydro-2H-chromen-2-yl]benzoic acid), read-out: EC50 (with co-corrector)

T1 sequence (P13569 with tags, fused parts or gaps DEL508-508): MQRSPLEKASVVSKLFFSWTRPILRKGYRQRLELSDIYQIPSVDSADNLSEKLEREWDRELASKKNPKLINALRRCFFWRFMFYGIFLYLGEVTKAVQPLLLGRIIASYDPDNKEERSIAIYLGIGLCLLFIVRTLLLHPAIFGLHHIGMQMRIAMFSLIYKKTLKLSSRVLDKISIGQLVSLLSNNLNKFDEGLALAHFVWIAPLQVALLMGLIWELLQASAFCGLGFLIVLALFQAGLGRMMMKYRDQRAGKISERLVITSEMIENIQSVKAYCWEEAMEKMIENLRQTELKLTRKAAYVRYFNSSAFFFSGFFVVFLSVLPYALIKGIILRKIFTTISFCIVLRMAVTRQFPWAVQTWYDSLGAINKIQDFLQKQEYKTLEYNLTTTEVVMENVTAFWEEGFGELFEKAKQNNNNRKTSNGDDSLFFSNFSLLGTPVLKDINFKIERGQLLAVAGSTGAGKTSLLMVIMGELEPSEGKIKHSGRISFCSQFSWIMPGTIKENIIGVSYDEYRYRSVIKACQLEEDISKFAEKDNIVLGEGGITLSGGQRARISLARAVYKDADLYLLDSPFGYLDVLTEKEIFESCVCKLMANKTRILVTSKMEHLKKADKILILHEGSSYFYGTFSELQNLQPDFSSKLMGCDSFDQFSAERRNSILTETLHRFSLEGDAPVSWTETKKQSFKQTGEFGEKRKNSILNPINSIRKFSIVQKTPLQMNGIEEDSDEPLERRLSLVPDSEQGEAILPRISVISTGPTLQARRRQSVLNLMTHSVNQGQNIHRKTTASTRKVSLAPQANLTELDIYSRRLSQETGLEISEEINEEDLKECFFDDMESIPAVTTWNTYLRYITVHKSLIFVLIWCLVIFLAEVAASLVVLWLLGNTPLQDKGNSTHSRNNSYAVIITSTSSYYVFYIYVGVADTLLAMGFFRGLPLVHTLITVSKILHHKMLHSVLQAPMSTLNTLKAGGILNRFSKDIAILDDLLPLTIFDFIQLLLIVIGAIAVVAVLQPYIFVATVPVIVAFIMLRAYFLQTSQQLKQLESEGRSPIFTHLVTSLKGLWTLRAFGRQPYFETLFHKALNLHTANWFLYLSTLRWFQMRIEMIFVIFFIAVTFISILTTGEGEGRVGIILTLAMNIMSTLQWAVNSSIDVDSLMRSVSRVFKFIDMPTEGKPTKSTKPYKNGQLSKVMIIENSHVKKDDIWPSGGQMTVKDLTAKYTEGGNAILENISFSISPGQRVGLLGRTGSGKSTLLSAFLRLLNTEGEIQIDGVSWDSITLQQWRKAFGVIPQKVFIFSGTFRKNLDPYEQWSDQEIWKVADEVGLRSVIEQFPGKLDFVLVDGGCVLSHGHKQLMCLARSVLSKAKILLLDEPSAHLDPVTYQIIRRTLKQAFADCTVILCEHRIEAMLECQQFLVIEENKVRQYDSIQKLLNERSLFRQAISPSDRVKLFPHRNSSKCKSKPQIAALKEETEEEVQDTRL

SMILES | EC50 [1] [nM] | EC50 [2] [nM] | Maximum % activity (with co-corrector) | Emax [%]
COc1ncc(C2CCC2)cc1CN[C@H]1[C@H](C(C)(C)C)[C@@H](C(=O)O)N(C(=O)OC(C)C)[C@H]1c1ccccc1C1CC1 [Example 93, (2S,3S,4S,5S)-3-tert-butyl-4-{[(5-cyclobutyl-2-methoxypyridin-3-yl)methyl]amino}-5-(2-cyclopropylphenyl)-1-{[(propan-2-yl)oxy]carbonyl}pyrrolidine-2-carboxylic acid] | 1000 to 10000 | < 1000 | +++ (≥350) | > 200
COc1ncc(C2CCC2)cc1CN[C@H]1[C@H](C(C)(C)C)[C@@H](C(=O)O)N(C(=O)OC(C)C)[C@H]1c1ccccc1C [Example 94, (2S,3S,4S,5S)-3-tert-butyl-4-{[(5-cyclobutyl-2-methoxypyridin-3-yl)methyl]amino}-5-(2-methylphenyl)-1-{[(propan-2-yl)oxy]carbonyl}pyrrolidine-2-carboxylic acid] | 1000 to 10000 | < 1000 | +++ (≥350) | > 200
COc1ncc(C(F)(F)F)cc1CN[C@H]1[C@H](C(C)(C)C)[C@@H](C(=O)O)N(C(=O)[C@@H]2CCCO2)[C@H]1c1ccccc1C(C)C [Example 95, (2S,3S,4S,5S)-3-tert-butyl-4-({[2-methoxy-5-(trifluoromethyl)pyridin-3-yl]methyl}amino)-1-[(2S)-oxolane-2-carbonyl]-5-[2-(propan-2-yl)phenyl]pyrrolidine-2-carboxylic acid] | < 1000 | < 1000 | +++ (≥350) | > 200
COc1ccc(C(C)(C)C)cc1CN[C@H]1[C@H](C(C)(C)C)[C@@H](C(=O)O)N(C(=O)[C@@H]2CCCO2)[C@H]1c1cccnc1C1CC1 [Example 96, (2S,3S,4S,5S)-3-tert-butyl-4-{[(5-tert-butyl-2-methoxyphenyl)methyl]amino}-5-(2-cyclopropylpyridin-3-yl)-1-[(2S)-oxolane-2-carbonyl]pyrrolidine-2-carboxylic acid] | 1000 to 10000 | 1000 to 10000 | +++ (≥350) | 100 to 200
CCOC(=O)N1[C@H](C(=O)O)[C@@H](C(C)(C)C)[C@H](NCc2cc(C(F)(F)F)cnc2OC)[C@@H]1c1ccccc1C(C)C [Example 97, (2S,3S,4S,5S)-3-tert-butyl-1-(ethoxycarbonyl)-4-({[2-methoxy-5-(trifluoromethyl)pyridin-3-yl]methyl}amino)-5-[2-(propan-2-yl)phenyl]pyrrolidine-2-carboxylic acid] | < 1000 | < 1000 | +++ (≥350) | > 200
COc1ncc(C(F)(F)F)cc1CN[C@H]1[C@H](C(C)(C)C)[C@@H](C(=O)O)N(C(=O)C2CCCC2)[C@H]1c1ccccc1C(C)C [Example 98, (2S,3S,4S,5S)-3-tert-butyl-1-(cyclopentanecarbonyl)-4-({[2-methoxy-5-(trifluoromethyl)pyridin-3-yl]methyl}amino)-5-[2-(propan-2-yl)phenyl]pyrrolidine-2-carboxylic acid] | < 1000 | < 1000 | +++ (≥350) | > 200
COc1ccc(C(C)(C)C)cc1CN[C@H]1[C@H](C(C)(C)C)[C@@H](C(=O)O)N(C(=O)OC(C)C)[C@H]1c1cccnc1N1CCC1 [Example 99, (2S,3S,4S,5S)-5-[2-(azetidin-1-yl)pyridin-3-yl]-3-tert-butyl-4-{[(5-tert-butyl-2-methoxyphenyl)methyl]amino}-1-{[(propan-2-yl)oxy]carbonyl}pyrrolidine-2-carboxylic acid] | 1000 to 10000 | 1000 to 10000 | +++ (≥350) | > 200
COc1nc2ccccc2cc1CN[C@H]1[C@H](C(C)(C)C)[C@@H](C(=O)O)N(C(=O)[C@@H]2CCCO2)[C@H]1c1ccccc1C(C)C [Example 100, (2S,3S,4S,5S)-3-tert-butyl-4-{[(2-methoxyquinolin-3-yl)methyl]amino}-1-[(2S)-oxolane-2-carbonyl]-5-[2-(propan-2-yl)phenyl]pyrrolidine-2-carboxylic acid] | 1000 to 10000 | < 1000 | +++ (≥350) | > 200
COc1ncc(C2CC2)cc1CN[C@H]1[C@H](C(C)(C)C)[C@@H](C(=O)O)N(C(=O)[C@@H]2CCCO2)[C@H]1c1ccccc1C(C)C [Example 101, (2S,3S,4S,5S)-3-tert-butyl-4-{[(5-cyclopropyl-2-methoxypyridin-3-yl)methyl]amino}-1-[(2S)-oxolane-2-carbonyl]-5-[2-(propan-2-yl)phenyl]pyrrolidine-2-carboxylic acid] | 1000 to 10000 | < 1000 | +++ (≥350) | > 200
COc1ccc(C(C)(C)C)cc1CN[C@H]1[C@H](C(C)(C)C)[C@@H](C(=O)O)N(C(=O)C2CCC2)[C@H]1c1cccnc1N1CCC1 [Example 102, (2S,3S,4S,5S)-5-[2-(azetidin-1-yl)pyridin-3-yl]-3-tert-butyl-4-{[(5-tert-butyl-2-methoxyphenyl)methyl]amino}-1-(cyclobutanecarbonyl)pyrrolidine-2-carboxylic acid] | 1000 to 10000 | 1000 to 10000 | +++ (≥350) | 100 to 200
COc1ncc(C2CCC2)cc1CN[C@H]1[C@H](C(C)(C)C)[C@@H](C(=O)O)N(C(=O)[C@@H]2CCCO2)[C@H]1c1ccccc1Cl [Example 103, (2S,3S,4S,5S)-3-tert-butyl-5-(2-chlorophenyl)-4-{[(5-cyclobutyl-2-methoxypyridin-3-yl)methyl]amino}-1-[(2S)-oxolane-2-carbonyl]pyrrolidine-2-carboxylic acid] | 1000 to 10000 | 1000 to 10000 | +++ (≥350) | 100 to 200
COc1ccc(C(C)(C)C)cc1CN[C@H]1[C@H](C(C)(C)C)[C@@H](C(=O)O)N(C(=O)[C@@H]2CCCO2)[C@H]1c1ccccc1C(C)C [Example 104, (2S,3S,4S,5S)-3-tert-butyl-4-{[(5-tert-butyl-2-methoxyphenyl)methyl]amino}-1-[(2S)-oxolane-2-carbonyl]-5-[2-(propan-2-yl)phenyl]pyrrolidine-2-carboxylic acid] | 1000 to 10000 | < 1000 | +++ (≥350) | > 200
COc1ncc(C2CC2)cc1CN[C@H]1[C@H](C(C)(C)C)[C@@H](C(=O)O)N(C(=O)C2CCCCC2)[C@H]1c1ccccc1C [Example 105, (2S,3S,4S,5S)-3-tert-butyl-1-(cyclohexanecarbonyl)-4-{[(5-cyclopropyl-2-methoxypyridin-3-yl)methyl]amino}-5-(2-methylphenyl)pyrrolidine-2-carboxylic acid] | 1000 to 10000 | < 1000 | +++ (≥350) | > 200
COc1ncc(C2CCC2)cc1CN[C@H]1[C@H](C(C)(C)C)[C@@H](C(=O)O)N(C(=O)[C@@H]2CCCO2)[C@H]1c1ccccc1Br [Example 106, (2S,3S,4S,5S)-5-(2-bromophenyl)-3-tert-butyl-4-{[(5-cyclobutyl-2-methoxypyridin-3-yl)methyl]amino}-1-[(2S)-oxolane-2-carbonyl]pyrrolidine-2-carboxylic acid] | 1000 to 10000 | 1000 to 10000 | +++ (≥350) | 100 to 200
COc1ncc(C2CCC2)cc1CN[C@H]1[C@H](C(C)(C)C)[C@@H](C(=O)O)N(C(=O)[C@@H]2CCCO2)[C@H]1c1ccccc1C1CC1 [Example 107, (2S,3S,4S,5S)-3-tert-butyl-4-{[(5-cyclobutyl-2-methoxypyridin-3-yl)methyl]amino}-5-(2-cyclopropylphenyl)-1-[(2S)-oxolane-2-carbonyl]pyrrolidine-2-carboxylic acid] | 1000 to 10000 | < 1000 | +++ (≥350) | > 200
COc1ccc(C(C)(C)C)cc1CN[C@H]1[C@H](C(C)(C)C)[C@@H](C(=O)O)N(C(=O)[C@@H]2CCCO2)[C@H]1c1ccccc1C1CC1 [Example 108, (2S,3S,4S,5S)-3-tert-butyl-4-{[(5-tert-butyl-2-methoxyphenyl)methyl]amino}-5-(2-cyclopropylphenyl)-1-[(2S)-oxolane-2-carbonyl]pyrrolidine-2-carboxylic acid] | 1000 to 10000 | 1000 to 10000 | +++ (≥350) | > 200
COc1ccc(C2(C)CCC2)cc1CN[C@H]1[C@H](C(C)(C)C)[C@@H](C(=O)O)N(C(=O)[C@@H]2CCCCO2)[C@H]1c1ccccc1C [Example 109, (2S,3S,4S,5S)-3-tert-butyl-4-({[2-methoxy-5-(1-methylcyclobutyl)phenyl]methyl}amino)-5-(2-methylphenyl)-1-[(2S)-oxane-2-carbonyl]pyrrolidine-2-carboxylic acid] | < 1000 | < 1000 | +++ (≥350) | > 200
COc1ccc(C(C)(C)C)cc1CN[C@H]1[C@H](C(C)(C)C)[C@@H](C(=O)O)N(C(=O)[C@@H]2CCCCO2)[C@H]1c1ccccc1C [Example 110, (2S,3S,4S,5S)-3-tert-butyl-4-{[(5-tert-butyl-2-methoxyphenyl)methyl]amino}-5-(2-methylphenyl)-1-[(2S)-oxane-2-carbonyl]pyrrolidine-2-carboxylic acid] | 1000 to 10000 | < 1000 | +++ (≥350) | > 200
